Assay results as given in patent US20170020900A1, “METHODS FOR SCREENING ANTIMICROBIAL AND ANTIVIRAL COMPOUNDS AND USES THEREOF” (The General Hospital Corporation, priority 2006, published 2017).
≈ marks a conversion by molar mass, not a printed value.

What was measured:
E. faecalis = test: Bacterial colonization of the nematode intestine (CFU per worm); assay type: in vivo, Enterococcus faecalis; details: 100% = 3.28 × 10^4 CFU/worm
Description: Infected worms were washed three times with M9 buffer containing 1 mM sodium azide. Approximately 10 worms were transferred to a 2 ml microcentrifuge tube and the volume was brought to 250 μl. Fifty μl of buffer was removed and plated to determine the number of external CFU.

[1] = test system: E. faecalis strain MMH594; test: C. elegans-E. faecalis liquid infection (curing) assay in 96-well plates, worm survival; assay type: in vivo, Enterococcus faecalis; details: glp-4, sek-1 C. elegans infected with E. faecalis MMH594
Description: (§1) Worm survival was scored manually after 6 days of incubation. […] MICs were determined against E. faecalis strain MMH594 using 2-fold dilution in BHI media according to the broth microdilution protocol of the NCCLS (CLSI) (National Committee for Clinical Laboratory Standards, Approved Standard M7-A5; Methods for Dilution Antimicrobial Susceptibility Tests for Bacteria that Grow Aerobically, Villanova, Pa.: NCCLS (2000)).

[2] = test system: E. faecalis strain MMH594; test: MIC, 2-fold broth microdilution in BHI media (NCCLS); assay type: cell-based, Enterococcus faecalis; details: E30 value is at its aqueous solubility limit
Description: as §1

[3] = test system: C. parapsilosis ATCC#22019; details: cited from earlier work
C. krusei ATCC#6258 [4] = details: cited from earlier work
C. albicans strain MLR62 [5] = test: C. elegans liquid medium killing assay with established antifungals; assay type: in vivo, Candida albicans
Description: (§2) Candida strains were inoculated in 2 ml of YPD and grown at 30° C. for 24 hours. Lawns were prepared by spreading 10 μl of each culture on 35 mm tissue-culture plates (Falcon) containing solid brain heart infusion (BHI) media (Difco) with kanamycin (45 μg/ml), ampicillin (100 μg/ml), and streptomycin (100 μg/ml). The plates were incubated at 30′C for 24 hours followed by 25° C. for 24 hours. glp-4; sek-1 and glp-4 worms were grown at 15° C. until they reached the L2 stage, and then they were transferred to 25° C. for 24 h. N2 wild-type worms were grown at 15° C. for 72 h, until they reached the L4 stage. Approximately 100 worms were picked onto each lawn and allowed to feed for 30 minutes to 2 hours. The worms were washed off the plates with M9 buffer and allowed to crawl on unseeded BHI plates to remove yeast cells from their cuticles. Roughly 70-80 worms were then picked to wells in a six-well microtiter dish that contained 1.5 ml liquid medium of 79% M9 buffer, 20% BHI, 2 μM cholesterol and 90 μg/ml kanamycin. The plates were incubated at 25° C. overnight and then examined at 24-hour intervals for survival.
To develop a system that allows high throughput screening for antifungal compounds, we first evaluated whether established antifungals prolong the survival of nematodes infected with Candida spp. For this, we used different C. albicans isolates as well as non-albicans strains, including those used as reference strains by clinical microbiology laboratories ([…], N. C. F. C. L. Methods for antifungal disk diffusion susceptibility testing of yeasts; approved guideline M44-A. (National Committee for Clinical Laboratory Standards, Wayne, Pa., 2004)).

C. albicans MLR62 = test: Fungal burden within C. elegans (cfu per worm); assay type: in vivo, Candida albicans; details: for concentration of Candida cfu in the nematodes: data not shown
Description: The number of C. albicans colony forming units in C. elegans was quantified based on the protocol detailed by Tang et al., Infect. Immun. 73:8219 (2005) and Garsin et al., Proc. Natl. Acad Sci. USA 98:10892 (2001) with a few modifications. C. albicans strain MLR62 lawns were prepared on BHI as described above. C. elegans glp-4; sek-1 worms were exposed to the lawns for 30 minutes and then moved to liquid media and incubated at 25° C. in the presence or absence of antifungal agents. At appropriate time points, 3 groups of 10 worms each were washed twice in 8 μl drops of M9 buffer on BHI agar plates, in order to remove surface Candida. Each group of 10 worms was then disrupted using a Pellet Pestle Motor (Kontes) and plated on YPD agar containing kanamycin (45 μg/ml), ampicillin (100 μg/ml), and streptomycin (100 μg/ml). The plates were incubated for 48 hours at 30′C and colonies were counted.

DAY185 = details: Candida strain DAY185; cited from earlier work
C. albicans strain MLR62 [6] = test: C. elegans-Candida killing assay, compound library screen in 96-well plates; assay type: in vivo, Candida albicans; details: positive control of the screen; <25% alive in PBS
Description: For testing the efficacy of chemical compounds, C. albicans strain MLR62 was inoculated into 2 ml of YPD and grown at 30° C. for 24 hours; 10 μl of the culture was spread on 35-mm tissue-culture plates (Falcon) containing brain heart infusion (BHI) agar (Difco) with kanamycin (45 μg/ml), ampicillin (100 μg/ml), and streptomycin (100 μg/ml). The plates were incubated at 30° C. for 24 hours. C. elegans animals at the L4 developmental stage (grown as detailed above under C. elegans liquid medium killing assays) were transferred from a lawn of E. coli HB101 onto C. albicans lawns on BHI medium, incubated at 25° C. for 30 minutes, and then pipetted in 50 μl into 96-well plate wells that contained 100 μl liquid media (79% of M9 buffer, 20% BHI media, 2 μM cholesterol and 90 μg/ml kanamycin). C. elegans glp-4; sek-1 nematodes were pipetted into 96-well plates that contained compounds from chemical libraries. Library 1361 was assembled by Biomol and contains well-characterized compounds that affect many different aspects of cellular pathways. The NINDS custom collection (plates 501-503) was put together by MicroSource Discovery Systems for the National Institute of Neurological Disorders and Stroke (NINDS), the Huntington's Disease Society of America (HDSA), the Amyotrophic Lateral Sclerosis (ALS) Association, and the Hereditary Disease Foundation (HDF). It mostly contains FDA approved drugs. The Prestwick library (plate 1569) contains compounds that are known to be safe and bioactive in humans. The majority of the compounds are marketed drugs.
On day 6, nematodes were evaluated for survival, filament formation and optical density. The plates were incubated at 25° C. and examined on day 6 for survival with a Nikon SMZ645 dissecting microscope. In addition, images were obtained using a CellWorx High Content Cell Analysis System (Applied Precision) at 4× magnification. Dead worms were counted but not removed. […] Each compound was also scored by the number of dead worms in the well that developed hyphea. […] Compounds were categorized as having a minimal effect on filament formation if 25-75% of the dead worms developed hyphea.
Approximately 25 nematodes were used to analyze each chemical compound tested. Two controls were used in all plates. […] In this pilot screen, we considered a compound as a “hit” when survival in the compound well with was 50% and above of the median survival of the control wells. Depending on the compound library, the final concentration of the compounds was 33.33 μg/ml, 13.33 μg/ml, or […].

C. albicans ATCC#90028 = details: cited from earlier work
C. krusei ATCC#6258 [7] = assay type: in vivo; details: fluconazole 32 μg/ml, fluconazole-resistant strain
Description: as §2
To develop a system that allows high throughput screening for antifungal compounds, we first evaluated whether established antifungals prolong the survival of nematodes infected with Candida spp. […]

[8] = caspofungin 8 μg/ml, amphotericin B 16 μg/ml, fluconazole 32 μg/ml, FIG. 17A

## O=c1oc2ccccc2c(O)c1/C(=C/C(=N/Nc1ccccc1)c1ccc(-c2ccc(Br)cc2)cc1)c1ccccc1 [Compound G1]
E. faecalis
  Amt. Colonization vs untreated: 6%
[1]
  Therapeutic Concentration: 25 µg/mL
[1]; untreated = 24% survival
  Fold Survival vs untreated: 3.3
[2]
  MIC: 31.3 µg/mL (≈ 51 µM)

## C[C@@H]1[C@H](O)[C@@H](C)/C=C/C=C/C=C/C=C/C=C/C=C/C=C/[C@H](O[C@@H]2O[C@H](C)[C@@H](O)[C@H](N)[C@@H]2O)C[C@@H]2O[C@](O)(C[C@@H](O)C[C@@H](O)[C@H](O)CC[C@@H](O)C[C@@H](O)CC(=O)O[C@H]1C)C[C@H](O)[C@H]2C(=O)O [amphotericin B]
[3]
  MIC: MIC: 2 μg/ml for amphotericin B^d,
C. krusei ATCC#6258 [4]
  MIC: MIC: 2 μg/ml for amphotericin B^d,
C. albicans strain MLR62 [5]; in vivo
  prolongation of nematode survival: effective
C. albicans MLR62
  concentration of Candida cfu in the nematodes: significantly decreased
DAY185
  MIC: 0.5 µg/mL (≈ 0.541 µM)

## CC[C@H](C)C[C@H](C)CCCCCCCCC(=O)N[C@H]1C[C@@H](O)[C@@H](NCCN)NC(=O)[C@@H]2[C@@H](O)CCN2C(=O)[C@H]([C@H](O)CCN)NC(=O)[C@H]([C@H](O)[C@@H](O)c2ccc(O)cc2)NC(=O)[C@@H]2C[C@@H](O)CN2C(=O)[C@H]([C@@H](C)O)NC1=O [caspofungin]
C. albicans strain MLR62 [6]
  nematode survival at day 6: > 75%
[3]
  MIC: 0.5 to 2 µg/mL
C. albicans ATCC#90028
  MIC: 1 μg/ml for caspofungin
C. krusei ATCC#6258 [4]
  MIC: 0.5 to 2 µg/mL
C. albicans strain MLR62 [5]; [8]
  prolongation of nematode survival: effective
C. albicans strain MLR62 [5]; nematode survival, P<0.0001
  lowest effective concentration (effective at concentrations as low as): 1 µg/mL
C. albicans MLR62; 8 μg/ml, untreated 170.8±63.5 cfu per worm, P<0.001
  fungal burden, average colony-forming units: 0.3±0.2 cfu per worm
DAY185
  MIC: 2 µg/mL (≈ 1.83 µM)

## OC(Cn1cncn1)(Cn1cncn1)c1ccc(F)cc1F [fluconazole]
C. krusei ATCC#6258 [7]
  effect on nematode survival: no effect
[3]
  MIC: 2 µg/mL (≈ 6.53 µM)
C. krusei ATCC#6258 [4]
  MIC: 32 µg/mL (≈ 104 µM)
C. albicans strain MLR62 [5]; [8]
  prolongation of nematode survival: effective
C. albicans MLR62
  concentration of Candida cfu in the nematodes: significantly decreased
DAY185
  MIC: 2 µg/mL (≈ 6.53 µM)
